Among the data in ChEMBL document CHEMBL5252615, “Synthesis, biological activity and mechanism of action of novel allosecurinine derivatives as potential antitumor agents” (Bioorg Med Chem, 2023) are IC50 and Activity values, retold here.

Activity calls are given as the source filed them. The calls are words filed in the database; no cut-off is given here.

Common to all, as to type: functional, cell-based
For assay [1], the system named is THP-1. Briefly: Antitumor activity against human THP-1 cells assessed as reduction in cell viability incubated for 72 hrs. The note with it: THP-1, 72 h.
Assay [2] has as its system SK-OV-3. Briefly: Antitumor activity against human SK-OV-3 cells assessed as reduction in cell viability incubated for 72 hrs. The note with it: SK-OV-3, 72 h.
Assay [3] concerns SK-OV-3. Briefly: Antitumor activity against taxol-resistant human SK-OV-3 cells assessed as reduction in cell viability incubated for 72 hrs. The note with it: SK-OV-3, 72 h.
Assay [4] concerns NB-4. Briefly: Antitumor activity against human NB4 cells assessed as reduction in cell viability incubated for 72 hrs. The note with it: NB-4, 72 h.
Assay [5] has as its system U-937. Briefly: Antitumor activity against human U-937 cells assessed as reduction in cell viability incubated for 72 hrs. The note with it: U-937, 72 h.
Assay [6] has as its system HL-60. Briefly: Antitumor activity against human HL-60 cells assessed as reduction in cell viability incubated for 72 hrs. The note with it: HL-60, 72 h.
Assay [7] concerns KG-1. Briefly: Antitumor activity against human KG-1 cells assessed as reduction in cell viability incubated for 72 hrs. The note with it: KG-1, 72 h.
Assay [8] has as its system K562. The assay is described as follows: Antitumor activity against human K562 cells assessed as reduction in cell viability incubated for 72 hrs. The note with it: K562, 72 h.
Assay [9] has as its system SU-DHL-2. Briefly: Antitumor activity against human SUDHL2 cells assessed as reduction in cell viability incubated for 72 hrs. The note with it: SU-DHL-2, 72 h.
Assay [10] deals with KG-1. Briefly: Induction of differentiation of human KG-1 cells assessed as increase in CD11b expression at 0.5 uM measured after 72 hrs by flow cytometric analysis. (In general: In flow cytometry, cells or beads pass a laser one at a time.)
The subject of assay [11] is NB-4. Briefly: Induction of differentiation of human NB4 cells assessed as increase in CD11b expression at 0.5 uM measured after 72 hrs by flow cytometric analysis.
Assay [12] concerns U-937. The assay is described as follows: Induction of differentiation of human U-937 cells assessed as increase in CD11b expression at 0.5 uM measured after 72 hrs by flow cytometric analysis.
In assay [13] the test system is THP-1. Briefly: Induction of differentiation of human THP1 cells assessed as increase in CD11b expression at 0.5 uM measured after 72 hrs by flow cytometric analysis.
The test system of assay [14] is HL-60. Briefly: Induction of differentiation of human HL-60 cells assessed as increase in CD11b expression at 0.5 uM measured after 72 hrs by flow cytometric analysis.

Usually IC50 stands for the concentration that gives 50% inhibition. With `Cc1ccccc1C(O)C1=C2C=C[C@@H]3C[C@@]2(OC1=O)[C@@H]1CCCCN31` (stereo not given in full), the IC50 in assay [1] stood at 26.9 µM; in assay [2], 20.1 µM; in assay [3], 19.3 µM; in [4] it was 5.01 µM; in assay [5], 8.04 µM; in assay [6] it was 13.4 µM. Also, the values for the half-inhibitory concentration (IC50) in assay [7], in [8] and in assay [9] were 10 µM, 12.7 µM and 27.2 µM, respectively.
As for `O=C1O[C@@]23C[C@@H](C=CC2=C1C(O)c1ccc(C(F)(F)F)cc1)N1CCCC[C@H]13` (stereo not given in full), the IC50 came to 6.16 µM in assay [1]; 13.5 µM in [2]; 14.8 µM in assay [3]; 1.99 µM in assay [4]; 3.68 µM in assay [5]; 4.17 µM in assay [6]. The IC50 in assay [7] came out at 1.83 µM; in [8] it was 6.06 µM; in assay [9], 12.1 µM.
As for `O=C1O[C@@]23C[C@@H](C=CC2=C1C(O)c1ccccc1F)N1CCCC[C@H]13` (stereo not given in full), the IC50 in assay [1] worked out at 3.34 µM; in assay [2], 10.2 µM; in assay [3], 12.8 µM; in assay [4] it was 10.9 µM; in assay [5], 4.22 µM; in assay [6], 9.47 µM. Besides, the values for the concentration for half-maximal inhibition (IC50) in [7], in assay [8] and in assay [9] were 3.54 µM, 7.14 µM and 20.3 µM, respectively.
`O=C1O[C@@]23C[C@@H](C=CC2=C1C(O)c1ccc(Cl)cc1)N1CCCC[C@H]13` (stereo not given in full): the IC50 in assay [1] was 14.8 µM; in [2], 9.94 µM; in assay [3] it was 11 µM; in assay [4], 10.1 µM; in assay [5], 7.56 µM; in [6] it was 11.8 µM. For the same molecule, the IC50 in assay [7] was determined as 3.95 µM; in [8], 4.47 µM; in assay [9] it was 18.3 µM.
As for `O=C1O[C@@]23C[C@@H](C=CC2=C1C(O)c1cccc([N+](=O)[O-])c1)N1CCCC[C@H]13` (stereo not given in full), the result in assay [10], in [11], in assay [12], in [13] and in assay [14] was Active. The IC50 in assay [1] stood at 12 µM; in [2] it was 3.11 µM; in assay [3], 3.5 µM; in assay [4], 3.01 µM; in assay [5], 4.64 µM; in [6], 6.2 µM. Also, the values for the IC50 in assay [7], in assay [8] and in assay [9] were 1.98 µM, 2.69 µM and 9.28 µM, respectively.
On to `N#Cc1ccc(C(O)C2=C3C=C[C@@H]4C[C@@]3(OC2=O)[C@@H]2CCCCN42)cc1` (stereo not given in full), for which the IC50 worked out at 15.6 µM in assay [1]; 4.18 µM in [2]; 4.54 µM in assay [3]; 3.84 µM in assay [4]; 2.2 µM in assay [5]; 7.16 µM in assay [6]. Moreover, the 50% inhibitory concentration (IC50) in [7] was 2.57 µM; in assay [8] it was 3.11 µM; in assay [9], 19.3 µM.
As for `O=C1O[C@@]23CC(C=CC2=C1C(O)c1ccccc1[N+](=O)[O-])N1CCCC[C@H]13` (single isomer, unassigned), the IC50 was found to be 10.7 µM in [1]; 10.2 µM in assay [2]; 9.91 µM in assay [3]; 3.3 µM in assay [4]; 8.05 µM in assay [5]; 9.2 µM in assay [6]. Besides, the IC50 in [7] was 4.18 µM; in [8], 3.7 µM; in assay [9], 16.1 µM.
As for `N#Cc1cccc(C(O)C2=C3C=C[C@@H]4C[C@@]3(OC2=O)[C@@H]2CCCCN42)c1` (stereo not given in full), the IC50 in assay [1] was determined as 16.1 µM; in assay [2] it was 6.68 µM; in assay [3], 7.61 µM; in [4], 7.7 µM; in [5], 1.79 µM; in [6], 9.98 µM. The values for the IC50 in [7], in assay [8] and in assay [9] were 1.95 µM, 6.02 µM and 20.1 µM, respectively.
As for `CS(=O)(=O)c1ccc(C(O)C2=C3C=C[C@@H]4C[C@@]3(OC2=O)[C@@H]2CCCCN42)cc1` (stereo not given in full), the IC50 is 25.9 µM in [1]; 11.6 µM in [2]; 12.5 µM in assay [3]; 12.8 µM in assay [4]; 27.3 µM in assay [5]; 17.2 µM in assay [6]. Further, the IC50 in assay [7] turned out to be 4.84 µM; in assay [8] it was 17.7 µM; in [9], 20.8 µM.
As to `O=C1O[C@@]23C[C@@H](C=CC2=C1C(O)c1ccc(F)cc1)N1CCCC[C@H]13` (stereo not given in full), the IC50 came out at 12.4 µM in assay [1]; 6.84 µM in [2]; 8.32 µM in [3]; 10.3 µM in assay [4]; 16.6 µM in assay [5]; 15.2 µM in [6]. The 50% inhibitory concentration (IC50) in assay [7] came to 2.12 µM; in assay [8] it was 17.3 µM; in assay [9] it was 15.3 µM.
With `CC(C)(C)c1ccc(C(O)C2=C3C=C[C@@H]4C[C@@]3(OC2=O)[C@@H]2CCCCN42)cc1` (stereo not given in full), the IC50 in assay [1] worked out at 16.1 µM; in assay [2] it was 14.9 µM; in [3] it was 17 µM; in [4], 15.9 µM; in assay [5], 16.7 µM; in [6], 16 µM. Further, the values for the IC50 in [7], in [8] and in [9] were 5.77 µM, 20.1 µM and 20.9 µM, respectively.
For the molecule `O=C1O[C@@]23C[C@@H](C=CC2=C1C(O)c1ccccc1Br)N1CCCC[C@H]13` (stereo not given in full), the IC50 in assay [1] amounted to 15.5 µM; in assay [2] it was 7.76 µM; in assay [3] it was 5.59 µM; in assay [4] it was 4.67 µM; in assay [5], 4.38 µM; in assay [6], 3.52 µM. The IC50 in [7] worked out at 4.11 µM; in assay [8] it was 1.68 µM; in assay [9], 20.7 µM.
Take `O=C1O[C@@]23C[C@@H](C=CC2=C1C(O)c1ccccc1Cl)N1CCCC[C@H]13` (stereo not given in full): the concentration for half-maximal inhibition (IC50) in [1] stood at 19.2 µM; in [2], 4.52 µM; in assay [3], 5.37 µM; in [4], 3.18 µM; in assay [5], 3.81 µM; in [6], 7.42 µM. In addition, the results for the IC50 in assay [7], in assay [8] and in assay [9] were 3.8 µM, 5.37 µM and 16.4 µM, respectively.
For the molecule `O=C1O[C@@]23C[C@@H](C=CC2=C1C(O)c1ccc(-c2ccccc2)cc1)N1CCCC[C@H]13` (stereo not given in full), the IC50 in assay [1] is 9.15 µM; in assay [2] it was 14.8 µM; in assay [3], 13.8 µM; in [4], 3.32 µM; in [5], 3.63 µM; in assay [6] it was 6.76 µM. Further, the IC50 turned out to be 4.77 µM in assay [7], 3.15 µM in [8] and 9.59 µM in assay [9].
As for `O=C1O[C@@]23C[C@@H](C=CC2=C1C(O)c1ccccc1)N1CCCC[C@H]13` (stereo not given in full), the IC50 in assay [1] was found to be 20.7 µM; in [2], 14.5 µM; in [3], 15.1 µM; in assay [4], 13.3 µM; in [5] it was 9.23 µM; in assay [6] it was 14.7 µM. Further, the IC50 in assay [7] was 9.12 µM; in assay [8] it was 16.9 µM; in assay [9] it was 19 µM.
